Where two headings read alike, the source gives them in different places.
How the values were obtained:
[1] = tested on: human U373 glioblastoma (GBM); experiment: MTT antiproliferative assay, U373; type: cell-based; details: 72 h treatment, sextuplicates, read-out: GI50 in vitro values, U373
Experimental: (§1) Human mammary carcinoma MCF-7 (ATCC HTB22) cells were cultured in RPMI supplemented with 10% FBS. The U87 cells (ATCC HTB-14) were cultured in DMEM culture medium, while the A549 cells (DSMZ ACC107) were cultured in RPMI culture medium supplemented with 10% heat-inactivated FBS. The GBM Hs683 (ATCC HTB-138) cells were cultivated in DMEM supplemented with 10% FBS. The human uterine sarcoma MES-SA (ATCC CRL1966) and MES-SA/D×5 cells were cultured in RPMI-1640 medium supplemented with 10% FBS with MES SA/D×5 maintained in the presence of 500 nM Doxorubicin (Sigma). SKMEL-28 cells (ATCC HTB72) and U373 GBM cells (ECACC 08061901) were cultured in RPMI culture medium supplemented with 10% heat-inactivated FBS. Cell culture media were supplemented with 4 mM glutamine (Lonza code BE17-605E), 100 μg/mL gentamicin (Lonza code 17-5182), and penicillin-streptomycin (200 units/ml and 200 μg/ml) (Lonza code 17-602E). The MDA-MB-231 (ATCC HTB-26) epithelial mammary adenocarcinoma cells were cultured in Eagle's minimum essential medium (EMEM; Invitrogen) containing 5% fetal calf serum (FCS, Cambrex), 2 mM L-glutamine (Invitrogen), 0.06% HEPES (Invitrogen) and penicillin (50 IU/ml)/streptomycin (50 µg/ml; Invitrogen) at 37° C. in a humidified atmosphere of 5% CO2 in air. Transformed mouse NPCs were cultured in suspension under neurosphere conditions at 37° C. in a humidified atmosphere of […] and 5% CO2 in DMEM F12 (Invitrogen 11320-074) supplemented with 1×B27 supplement (Invitrogen 17504-044), 5% penicillin-streptomycin (Biochrom 10378-017), 10 ng/ml EGF (R&D systems 236-EG), 10 ng/ml FGF (PeproTech 100-18B).
(§2) Antiproliferative properties of the synthesized compounds were evaluated by the MTT assay. All compounds were dissolved in DMSO at a concentration of either 100 μM or 50 μM prior to cell treatment. The cells were trypsinized and seeded at various cell concentrations depending on the cell type. The cells were grown for 24 h to 72 h, treated with compounds at concentrations ranging from 0.001 to 100 μM and incubated for 48 or 72 h in 100 or 200 μL media depending on the cell line used. The number of experiments and replicates varied depending on the cell line. Cells treated with 0.1% DMSO were used as a negative control; 1 μM PAO was used as a positive control.
(§3) The synthesized C12-Wittig derivatives were evaluated for antiproliferative activities in a panel of cancer cell lines that included apoptosis-resistant human U373 glioblastoma (GBM) (Lefranc et al., 2013), human A549 non-small cell lung cancer (NSCLC) and human SKMEL-28 melanoma (Mathieu et al., 2009) as well as apoptosis-sensitive human Hs683 anaplastic oligodendroglioma (Lefranc et al., 2013) and human MCF-7 breast cancer (Frolova et al., 2013).

[2] = tested on: human Hs683 anaplastic oligodendroglioma; experiment: MTT antiproliferative assay, Hs683; type: cell-based; details: sextuplicates, read-out: GI50 in vitro values, Hs683
Experimental: as §1, §2, §3

[3] = tested on: panel of cancer cell lines (A549, SKMEL-28, MCF-7, U373, Hs683); experiment: MTT antiproliferative assay, panel of five cancer cell lines; type: cell-based, human; details: mean over five cell lines, 72 h treatment, MTT assay, read-out: GI50 in vitro values, Mean + SEM
Experimental: as §2, §3

[4] = tested on: human MCF-7 breast cancer; experiment: MTT antiproliferative assay, MCF-7; type: cell-based; details: sextuplicates, read-out: GI50 in vitro values, MCF-7
Experimental: as §1, §2, §3

human SKMEL-28 melanoma = experiment: MTT antiproliferative assay, SKMEL-28; type: cell-based; details: sextuplicates, read-out: GI50 in vitro values, SKMEL-28
Experimental: as §1, §2, §3

[5] = tested on: human A549 non-small cell lung cancer (NSCLC); experiment: MTT antiproliferative assay, A549; type: cell-based; details: for GI50: 72 h treatment, MTT assay, sextuplicates, read-out: GI50 in vitro values, A549
Experimental: as §1, §2, §3

[6] = tested on: uterine sarcoma MES-SA cells; experiment: MTT antiproliferative assay, MES-SA; type: cell-based, human; details: Homo sapiens, MES-SA, 48 h treatment, relative to DMSO control, read-out: GI50 in vitro values, MES-SA
Experimental: as §1
(§4) Antiproliferative properties of the synthesized compounds were evaluated by the MTT assay. All compounds were dissolved in DMSO at a concentration of either 100 μM or 50 μM prior to cell treatment. The cells were trypsinized and seeded at various cell concentrations depending on the cell type. […]

[7] = tested on: MDR uterine sarcoma cell line MES-SA/Dx5; experiment: MTT antiproliferative assay, MDR MES-SA/Dx5; type: cell-based, human
Experimental: as §1, §2
Selection of the MES-SA/D×5 cell line was done according to Harker et al. (Harker & Sikic, 1985). The cells were split and allowed to adhere overnight. The next day cells were initially exposed to doxorubicin (DOX) at the concentration of 100 nM, which represented the GI50 concentration. The cells were maintained at this DOX concentration until their growth rate reached that of the untreated cells. The DOX concentration was then increased in two-fold increments following the same growth criteria at each concentration to a final DOX concentration of 500 nM. Each new DOX concentration required approximately 2 passages to reach the growth rate of the untreated cells.
Often, tumors initially respond to chemotherapy but eventually become refractory to the continuing treatment. Such acquired resistance commonly occurs through the development of a multi-drug resistant phenotype (MDR) (Gottesman et al., 2002 and Saraswathy & Gong, 2013) affecting many common chemotherapeutic agents, including the vinca alkaloids (Chen et al., 2000) and taxanes (Geney et al., 2002). In addition, the development of apoptosis resistance and MDR mechanisms is often related and concurrent (Ruefli et al., 2002 and Johnstone et al., 1999), and thus it was of interest to evaluate 5 against MDR cells. Towards this end, the MDR uterine sarcoma cell line MES-SA/D×5, established by growing the parent uterine sarcoma MES-SA in the presence of increasing concentrations of doxorubicin and resistant to multiple functionally and structurally unrelated molecules (Harker & Sikic, 1985), was utilized.

[8] = tested on: U87 glioblastoma cell cultures; experiment: MTT growth curves, U87; type: cell-based, human; details: apoptosis-resistant U87 GBM; concentrations up to 100 μM
Experimental: as §1, §4

HeLa-derived tumors = experiment: Mouse xenograft model, HeLa; type: in vivo, athymic nude mice
Experimental: Six-week old female athymic nude mice were used in laminar air-flow cabinet in pathogen-free conditions. They were acclimated for one week prior to the start of the study and kept at controlled temperature and humidity, with food and water. Mice were injected subcutaneously in the flank with 2×10^6 Cal27 cells or HeLa cells in 0.1 mL of sterile PBS. When the tumors reached 100 mm^3 (Cal27) and 150 mm^3 (HeLa), the mice were stratified into 4 groups, […], polygodial, P10, P3 and P27 at the concentrations noted in the figure legends.

HeLa cells = experiment: Calcium imaging, HeLa; type: cell-based, human; details: polygodial 80 μM, P10 4 μM, P3 50 μM
[9] = tested on: cervical cancer cell line HeLa; experiment: Cell viability (Cell Titer 96 Aqueous), HeLa; type: cell-based, human; details: 48 hours; potency order P10, polygodial, P3
Description: (§5) Human cancer cell lines were obtained from the American Type Culture Collection (ATCC, Manassas, Va., USA), the European Collection of Cell Culture (ECACC, Salisbury, UK) and the Deutsche Sammlung von Mikroorganismen und Zellkulturen (DSMZ, Braunschweig, Germany). The OSCC cell lines, Cal27 and HSC3 are derived from human primary tongue tumor. Cal27 cells were obtained from the American Type Culture Collection (Rockville, Md.). HSC3 cells were provided by Dr. Brian Schmidt. HeLa cells (cervical cancer cell line) were obtained from ATCC. Cells were cultured in DMEM, containing 10% FBS and 1% penicillin-streptomycin media, at 37° C. in 5% CO2. All cells were authenticated by Genetic DNA Laboratories.
(§6) The cytotoxicity of polygodial, P10, P3, and P27 in Cal27, HSC3, and HeLa cells was examined in vitro using a colorimetric assay, Cell Titer 96® Aqueous Non-Radioactive Cell Proliferation Assay. […] GraphPad Prism4 was used to perform statistical analysis.

HSC3 cells = experiment: Calcium imaging, HSC3; type: cell-based, human
[10] = target: T1, CHO cells that overexpress TRPV1 (CHO-TRPV1) (Homo sapiens, UniProt Q8NER1); experiment: Calcium imaging, CHO-TRPV1; type: cell-based; details: polygodial 80 μM, P10 4 μM, P3 50 μM
T1 construct: expressed in transfected cells; host or cells: CHO cells
Experimental: CHO cells that overexpress TRPV1 (CHO-TRPV1) were treated with polygodial (80 μM), P10 ([…]), or P3 (50 μM) and calcium influx was measured. Cells were also pre-treated with the TRPV1 antagonist capsazepine (CPZ; 10 μM) to determine if calcium influx via TRPV1 was inhibited. 3 μM ionomycin was used as a positive control. Fluo-4 Direct Calcium Assay Kit and Sweptfield confocal with Nikon Ti were used to visualize calcium influx and the images were analyzed using ImageJ software.

OSCC cell line HSC3 = experiment: Cell viability (Cell Titer 96 Aqueous), HSC3; type: cell-based, human; details: 48 hours; potency order P10, polygodial, P3
Description: as §5, §6

T1 sequence (Q8NER1 whole entry): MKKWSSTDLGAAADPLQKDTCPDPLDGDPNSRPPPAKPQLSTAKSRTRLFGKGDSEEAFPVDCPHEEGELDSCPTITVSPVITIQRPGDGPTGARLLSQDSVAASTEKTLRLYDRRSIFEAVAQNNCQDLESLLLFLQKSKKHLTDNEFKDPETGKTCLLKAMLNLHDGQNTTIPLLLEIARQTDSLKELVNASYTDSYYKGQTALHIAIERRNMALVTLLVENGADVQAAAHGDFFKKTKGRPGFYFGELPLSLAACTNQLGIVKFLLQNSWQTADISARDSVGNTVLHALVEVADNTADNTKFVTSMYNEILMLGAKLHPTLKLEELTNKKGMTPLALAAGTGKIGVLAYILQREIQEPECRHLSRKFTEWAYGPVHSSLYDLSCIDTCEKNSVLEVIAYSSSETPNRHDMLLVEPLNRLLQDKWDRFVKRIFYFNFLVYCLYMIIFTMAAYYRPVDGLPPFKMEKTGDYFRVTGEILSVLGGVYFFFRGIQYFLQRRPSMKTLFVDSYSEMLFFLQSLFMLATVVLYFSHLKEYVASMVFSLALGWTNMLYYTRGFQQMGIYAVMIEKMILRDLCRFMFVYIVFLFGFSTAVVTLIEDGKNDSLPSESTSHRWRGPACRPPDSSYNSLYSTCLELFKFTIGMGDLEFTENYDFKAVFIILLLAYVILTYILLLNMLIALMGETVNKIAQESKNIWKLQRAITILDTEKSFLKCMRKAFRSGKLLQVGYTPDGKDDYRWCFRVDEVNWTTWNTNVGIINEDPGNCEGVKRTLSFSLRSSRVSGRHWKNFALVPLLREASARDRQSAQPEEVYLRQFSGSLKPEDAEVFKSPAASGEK

SMILES | GI50 [1] | GI50 ([2]; 72 h treatment) | GI50 [3] | GI50 ([4]; 72 h treatment) | GI50 (human SKMEL-28 melanoma; 72 h treatment) | GI50 [5] | other results
CC1(C)CCC[C@@]2(C)C1CC=C(/C=C/C#N)[C@H]2C=O (stereo partly shown) [Compound 11] | 36 µM | 28 µM | 33 ± 3 µM | 31 µM | 42 µM | 27 µM | –
CC(C)(C)OC(=O)/C=C/C1=CCC2C(C)(C)CCC[C@]2(C)[C@@H]1C=O (stereo partly shown) [Compound 8] | 40 µM | 29 µM | 34 ± 3 µM | 32 µM | 41 µM | 29 µM | –
COC(=O)/C=C/C1=CCC2C(C)(C)CCC[C@]2(C)[C@@H]1C=O (stereo partly shown) | – | – | – | – | – | – | GI50 ([1]; Homo sapiens, U373 MG): 39 ± 1 µM; GI50 ([2]; Homo sapiens, Hs 683, 72 h treatment): 33 ± 0.5 µM; GI50 ([3]; Homo sapiens): 40 ± 8 µM; GI50 ([4]; Homo sapiens, MCF7, 72 h treatment): 28 ± 1 µM; GI50 (human SKMEL-28 melanoma; Homo sapiens, SK-MEL-28, 72 h treatment): 70 ± 1 µM; GI50 ([5]; Homo sapiens, A549): 29 ± 1 µM
CC[C@]1(O)C[C@@H]2CN(CCc3c([nH]c4ccccc34)[C@@](C(=O)OC)(c3cc4c(cc3OC)N(C)[C@H]3[C@@](O)(C(=O)OC)[C@H](OC(C)=O)[C@]5(CC)C=CCN6CC[C@]43[C@@H]65)C2)C1 [Vinblastine] | – | – | – | – | – | – | GI50 [6]: 0.006 µM; change of potency against MES-SA/Dx5 MDR cell line as compared with parent MES-SA cells ([7]; 48 h MTT): lost their potency by a factor of a thousand; GI50 ([7]; Homo sapiens, MES-SA/Dx5, 48 h treatment, MTT assay, relative to DMSO control, read-out: GI50 in vitro values, MES-SA/Dx5): 5 µM
COc1cc([C@@H]2c3cc4c(cc3[C@H](O)[C@H]3COC(=O)[C@H]23)OCO4)cc(OC)c1OC [podophyllotoxin, reference compound] | – | – | – | – | – | – | effect on proliferation/viability of all cells, A549 ([5]; apoptosis-resistant A549 NSCLC, concentrations up to 100 μM): no effect on proliferation of ca. 50% of cells; effect on proliferation/viability of all cells, U87 [8]: no effect on proliferation of ca. 50% of cells
CC(=O)/C=C/C1=CCC2C(C)(C)CCC[C@]2(C)[C@@H]1C=O (stereo partly shown) [Compound 12] | 25 µM | 22 µM | 24 ± 1 µM | 20 µM | 28 µM | 24 µM | –
CC1(C)CCC[C@]2(C)[C@H](C=O)C(C=O)=CC[C@@H]12 [Compound P10, 9-epi-polygodial] | – | – | – | – | – | – | anti-tumor effect, HeLa-derived tumors (HeLa-derived tumors; 40 μg/100 μl intra-tumor injection every other day for 18 days, polygodial significantly more efficacious than P3): not efficacious in vivo; adverse effects, HeLa xenograft mice (HeLa-derived tumors; mouse, in vivo): no adverse effects in vivo; calcium influx, HeLa (HeLa cells): did not induce calcium influx; cancer cell viability, HeLa [9]: reduced cancer cell viability in vitro; reversal of calcium influx by capsazepine, HSC3 (HSC3 cells; CPZ 10 μM): not reversed; calcium influx, HSC3 (HSC3 cells; polygodial 80 μM, P10 4 μM, P3 50 μM): did induce calcium influx; TRPV1 activation (calcium influx), CHO-TRPV1 [10]: do not; cancer cell viability, HSC3 (OSCC cell line HSC3): reduced cancer cell viability in vitro

Second part, led by results:

GI50 [1] | GI50 ([2]; 72 h treatment) | GI50 [3] | GI50 ([4]; 72 h treatment) | GI50 (human SKMEL-28 melanoma; 72 h treatment) | GI50 [5] | SMILES | other results
37 µM | 29 µM | 30 ± 2 µM | 30 µM | 29 µM | 25 µM | CCOC(=O)/C=C/C1=CCC2C(C)(C)CCC[C@]2(C)[C@@H]1C=O (stereo partly shown) [Compound 6] | –
39 µM | 31 µM | 33 ± 3 µM | 27 µM | 39 µM | 28 µM | CC1(C)CCCC2(C)C(C=O)C(C=CC(=O)OCc3ccccc3)=CCC12 (stereo not shown) [Compound 9] | –
37 µM | 28 µM | 31 ± 2 µM | 27 µM | 37 µM | 26 µM | CCOC(=O)C(C)=CC1=CCC2C(C)(C)CCCC2(C)C1C=O (stereo not shown) [Compound 7] | –
27 µM | 12 µM | 25 ± 3 µM | 31 µM | 25 µM | 29 µM | COC(=O)/C=C/C=C/C1=CCC2C(C)(C)CCC[C@]2(C)[C@@H]1C=O (stereo partly shown) [Compound 10] | –

— patent US20180237362A1, “NOVEL POLYGODIAL ANALOGS FOR THE TREATMENT OF CANCER AND OTHER PROLIFERATIVE DISEASES” (THE BOARD OF REGENTS OF THE UNIVERSITY OF TAXAS SYSTEM, priority 2015, published 2018)
